In ChEMBL document CHEMBL5291721, “A preclinical secondary pharmacology resource illuminates target-adverse drug reaction associations of marketed drugs” (Nat Commun, 2023):

Tests used:
[1] = biological target: T1, Neuropeptide Y receptor type 1 (Homo sapiens, UniProt P25929)
T1 sequence (P25929 whole entry): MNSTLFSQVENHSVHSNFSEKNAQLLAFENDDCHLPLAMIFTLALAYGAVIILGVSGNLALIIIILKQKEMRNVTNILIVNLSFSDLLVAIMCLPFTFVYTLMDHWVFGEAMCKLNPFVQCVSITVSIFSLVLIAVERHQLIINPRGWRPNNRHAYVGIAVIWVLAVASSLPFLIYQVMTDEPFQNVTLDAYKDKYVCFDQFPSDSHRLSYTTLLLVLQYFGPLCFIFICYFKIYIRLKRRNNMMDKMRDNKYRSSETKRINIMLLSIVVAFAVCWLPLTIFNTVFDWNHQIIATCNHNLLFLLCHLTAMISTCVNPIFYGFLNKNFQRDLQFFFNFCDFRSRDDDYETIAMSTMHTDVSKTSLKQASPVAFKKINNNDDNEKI

[2] = biological target: T2, Muscarinic acetylcholine receptor M2 (Homo sapiens, UniProt P08172); type: functional, cell-based
T2 sequence (P08172 whole entry): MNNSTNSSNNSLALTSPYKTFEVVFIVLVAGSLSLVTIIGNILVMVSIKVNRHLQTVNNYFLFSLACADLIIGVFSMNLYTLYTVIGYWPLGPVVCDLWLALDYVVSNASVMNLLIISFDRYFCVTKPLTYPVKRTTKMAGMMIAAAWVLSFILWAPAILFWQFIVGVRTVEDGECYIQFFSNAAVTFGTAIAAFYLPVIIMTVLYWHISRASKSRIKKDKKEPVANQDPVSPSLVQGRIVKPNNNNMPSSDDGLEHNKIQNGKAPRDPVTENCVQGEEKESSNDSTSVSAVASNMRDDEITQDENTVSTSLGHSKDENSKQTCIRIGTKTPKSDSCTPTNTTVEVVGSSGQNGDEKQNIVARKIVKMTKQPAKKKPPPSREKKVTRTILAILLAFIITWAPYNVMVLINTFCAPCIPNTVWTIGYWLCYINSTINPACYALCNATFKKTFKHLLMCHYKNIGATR

[3] = biological target: Sodium-dependent serotonin transporter (Homo sapiens, UniProt P31645)
B2 bradykinin receptor = biological target: T3, B2 bradykinin receptor (Homo sapiens, UniProt P30411)
T3 sequence (P30411 whole entry): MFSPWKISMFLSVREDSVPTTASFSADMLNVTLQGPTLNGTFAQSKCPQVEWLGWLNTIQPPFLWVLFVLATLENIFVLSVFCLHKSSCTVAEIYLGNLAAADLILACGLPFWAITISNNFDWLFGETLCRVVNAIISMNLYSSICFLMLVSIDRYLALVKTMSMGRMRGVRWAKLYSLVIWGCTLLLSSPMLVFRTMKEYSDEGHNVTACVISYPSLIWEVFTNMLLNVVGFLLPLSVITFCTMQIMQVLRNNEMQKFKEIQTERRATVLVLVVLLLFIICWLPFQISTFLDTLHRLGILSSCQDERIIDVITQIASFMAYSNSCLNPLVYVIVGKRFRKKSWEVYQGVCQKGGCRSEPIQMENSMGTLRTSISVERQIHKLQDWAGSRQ

Cannabinoid receptor 1 [4] = biological target: T4, Cannabinoid receptor 1 (Homo sapiens, UniProt P21554); type: functional, cell-based
[5] = biological target: Prostaglandin G/H synthase 1 (Homo sapiens, UniProt P23219); type: functional
D(3) dopamine receptor = D(3) dopamine receptor (Homo sapiens, UniProt P35462)
Cannabinoid receptor 1 [6] = biological target: T4, Cannabinoid receptor 1
[7] = biological target: cGMP-inhibited 3',5'-cyclic phosphodiesterase 3A (Homo sapiens, UniProt Q14432); type: functional
[8] = biological target: T5, Amine oxidase [flavin-containing] A (Homo sapiens, UniProt P21397); type: functional
T5 sequence (P21397 whole entry): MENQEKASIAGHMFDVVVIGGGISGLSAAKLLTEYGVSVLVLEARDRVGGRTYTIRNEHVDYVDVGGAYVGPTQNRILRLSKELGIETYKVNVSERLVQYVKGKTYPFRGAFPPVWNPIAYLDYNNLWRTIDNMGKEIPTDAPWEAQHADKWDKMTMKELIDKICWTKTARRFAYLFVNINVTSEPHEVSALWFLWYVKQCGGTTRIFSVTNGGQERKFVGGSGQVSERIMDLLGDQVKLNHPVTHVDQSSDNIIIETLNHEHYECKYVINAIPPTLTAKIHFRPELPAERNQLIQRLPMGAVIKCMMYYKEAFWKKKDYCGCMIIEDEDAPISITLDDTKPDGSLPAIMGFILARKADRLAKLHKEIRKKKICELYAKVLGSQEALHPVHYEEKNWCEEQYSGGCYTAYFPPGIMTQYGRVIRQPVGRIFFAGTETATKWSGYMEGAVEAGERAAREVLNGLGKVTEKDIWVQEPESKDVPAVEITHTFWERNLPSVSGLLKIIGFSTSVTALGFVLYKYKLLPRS

D(1A) dopamine receptor = D(1A) dopamine receptor (Homo sapiens, UniProt P21728)
Prothrombin = Prothrombin (Homo sapiens, UniProt P00734); type: functional
[9] = biological target: T6, Alpha-1A adrenergic receptor (Homo sapiens, UniProt P35348); type: functional, cell-based
T6 sequence (P35348 whole entry): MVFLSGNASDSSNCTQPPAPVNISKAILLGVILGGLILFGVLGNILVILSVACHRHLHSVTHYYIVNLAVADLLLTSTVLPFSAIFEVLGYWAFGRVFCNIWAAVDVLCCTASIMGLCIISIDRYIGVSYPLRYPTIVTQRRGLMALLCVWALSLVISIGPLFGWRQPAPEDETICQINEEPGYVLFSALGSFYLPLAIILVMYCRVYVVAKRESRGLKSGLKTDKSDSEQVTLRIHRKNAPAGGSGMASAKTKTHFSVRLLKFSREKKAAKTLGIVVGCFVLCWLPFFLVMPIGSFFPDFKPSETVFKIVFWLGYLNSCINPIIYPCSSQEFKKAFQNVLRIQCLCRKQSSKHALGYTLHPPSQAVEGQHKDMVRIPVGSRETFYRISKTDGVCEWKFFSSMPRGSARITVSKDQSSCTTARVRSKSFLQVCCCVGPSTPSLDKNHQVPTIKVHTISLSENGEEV

[10] = biological target: Gamma-aminobutyric acid receptor subunit alpha-1 (Rattus norvegicus, UniProt P62813)
Note: assay procedure not described here.

Chain of Gamma-aminobutyric acid receptor subunit alpha-1 (P62813 whole entry): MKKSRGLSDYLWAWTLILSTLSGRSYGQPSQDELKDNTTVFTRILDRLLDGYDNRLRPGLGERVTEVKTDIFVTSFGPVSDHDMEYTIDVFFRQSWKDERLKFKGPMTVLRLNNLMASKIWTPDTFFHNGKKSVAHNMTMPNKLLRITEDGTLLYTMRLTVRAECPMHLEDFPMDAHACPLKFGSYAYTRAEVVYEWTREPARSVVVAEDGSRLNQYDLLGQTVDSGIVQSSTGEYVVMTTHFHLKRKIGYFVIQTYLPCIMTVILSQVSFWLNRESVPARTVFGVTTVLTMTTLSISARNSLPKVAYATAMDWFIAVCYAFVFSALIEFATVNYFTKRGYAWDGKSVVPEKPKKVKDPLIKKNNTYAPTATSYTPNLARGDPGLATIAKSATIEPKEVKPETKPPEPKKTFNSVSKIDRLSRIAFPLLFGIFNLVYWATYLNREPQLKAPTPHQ
T4 sequence (P21554 whole entry): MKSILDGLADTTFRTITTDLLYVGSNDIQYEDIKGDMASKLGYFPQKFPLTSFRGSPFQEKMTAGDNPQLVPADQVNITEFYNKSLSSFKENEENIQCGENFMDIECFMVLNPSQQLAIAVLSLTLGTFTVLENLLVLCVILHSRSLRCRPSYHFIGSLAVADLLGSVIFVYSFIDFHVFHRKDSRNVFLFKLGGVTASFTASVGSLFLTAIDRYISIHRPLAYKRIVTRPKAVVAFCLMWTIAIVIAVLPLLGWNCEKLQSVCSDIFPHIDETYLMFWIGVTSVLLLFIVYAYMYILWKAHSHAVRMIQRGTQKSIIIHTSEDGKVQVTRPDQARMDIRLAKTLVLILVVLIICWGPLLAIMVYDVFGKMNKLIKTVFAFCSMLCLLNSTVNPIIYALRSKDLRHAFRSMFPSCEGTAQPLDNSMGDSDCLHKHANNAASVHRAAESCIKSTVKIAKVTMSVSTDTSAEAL
Chain of cGMP-inhibited 3',5'-cyclic phosphodiesterase 3A (Q14432 whole entry): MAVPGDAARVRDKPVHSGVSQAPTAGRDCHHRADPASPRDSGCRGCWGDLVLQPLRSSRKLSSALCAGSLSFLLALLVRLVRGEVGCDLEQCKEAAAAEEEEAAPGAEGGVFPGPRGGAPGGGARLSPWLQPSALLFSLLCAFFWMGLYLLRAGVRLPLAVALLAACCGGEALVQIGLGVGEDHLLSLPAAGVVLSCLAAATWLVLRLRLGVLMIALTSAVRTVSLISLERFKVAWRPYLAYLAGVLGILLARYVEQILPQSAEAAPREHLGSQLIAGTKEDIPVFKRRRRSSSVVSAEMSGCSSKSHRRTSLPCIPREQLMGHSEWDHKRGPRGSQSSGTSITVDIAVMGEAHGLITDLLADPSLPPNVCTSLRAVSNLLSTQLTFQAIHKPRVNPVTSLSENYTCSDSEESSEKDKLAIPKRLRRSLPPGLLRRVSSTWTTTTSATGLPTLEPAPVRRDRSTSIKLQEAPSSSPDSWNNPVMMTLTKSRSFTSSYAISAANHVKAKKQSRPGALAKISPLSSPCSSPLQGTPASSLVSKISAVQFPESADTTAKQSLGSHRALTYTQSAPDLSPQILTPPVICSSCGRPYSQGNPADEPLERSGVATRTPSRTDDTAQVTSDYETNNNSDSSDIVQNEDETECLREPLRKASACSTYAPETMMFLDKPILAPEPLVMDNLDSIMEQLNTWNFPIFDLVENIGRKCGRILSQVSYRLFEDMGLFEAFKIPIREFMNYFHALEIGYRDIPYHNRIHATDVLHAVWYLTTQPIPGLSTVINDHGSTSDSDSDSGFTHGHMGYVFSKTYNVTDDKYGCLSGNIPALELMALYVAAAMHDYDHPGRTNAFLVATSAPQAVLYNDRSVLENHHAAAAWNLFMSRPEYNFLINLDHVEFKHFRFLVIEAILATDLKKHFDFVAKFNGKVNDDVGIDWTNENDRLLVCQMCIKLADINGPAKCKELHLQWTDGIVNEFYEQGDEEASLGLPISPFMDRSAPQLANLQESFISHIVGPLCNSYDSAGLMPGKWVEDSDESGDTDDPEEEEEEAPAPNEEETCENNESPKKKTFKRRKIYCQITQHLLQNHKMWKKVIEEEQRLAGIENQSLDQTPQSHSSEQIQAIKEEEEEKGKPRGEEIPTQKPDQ
Chain of D(1A) dopamine receptor (P21728 whole entry): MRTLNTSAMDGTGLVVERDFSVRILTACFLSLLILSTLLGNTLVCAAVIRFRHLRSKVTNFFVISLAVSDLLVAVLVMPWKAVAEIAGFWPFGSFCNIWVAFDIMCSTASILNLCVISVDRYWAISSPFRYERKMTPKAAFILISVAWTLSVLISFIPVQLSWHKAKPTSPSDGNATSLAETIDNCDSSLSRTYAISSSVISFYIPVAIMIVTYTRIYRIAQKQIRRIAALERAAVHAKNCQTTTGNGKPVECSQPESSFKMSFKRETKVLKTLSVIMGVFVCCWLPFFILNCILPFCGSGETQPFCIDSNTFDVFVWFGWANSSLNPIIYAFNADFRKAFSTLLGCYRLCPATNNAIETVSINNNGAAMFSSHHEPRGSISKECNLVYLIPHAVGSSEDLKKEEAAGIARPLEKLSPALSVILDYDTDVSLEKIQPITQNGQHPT
Chain of Prostaglandin G/H synthase 1 (P23219 whole entry): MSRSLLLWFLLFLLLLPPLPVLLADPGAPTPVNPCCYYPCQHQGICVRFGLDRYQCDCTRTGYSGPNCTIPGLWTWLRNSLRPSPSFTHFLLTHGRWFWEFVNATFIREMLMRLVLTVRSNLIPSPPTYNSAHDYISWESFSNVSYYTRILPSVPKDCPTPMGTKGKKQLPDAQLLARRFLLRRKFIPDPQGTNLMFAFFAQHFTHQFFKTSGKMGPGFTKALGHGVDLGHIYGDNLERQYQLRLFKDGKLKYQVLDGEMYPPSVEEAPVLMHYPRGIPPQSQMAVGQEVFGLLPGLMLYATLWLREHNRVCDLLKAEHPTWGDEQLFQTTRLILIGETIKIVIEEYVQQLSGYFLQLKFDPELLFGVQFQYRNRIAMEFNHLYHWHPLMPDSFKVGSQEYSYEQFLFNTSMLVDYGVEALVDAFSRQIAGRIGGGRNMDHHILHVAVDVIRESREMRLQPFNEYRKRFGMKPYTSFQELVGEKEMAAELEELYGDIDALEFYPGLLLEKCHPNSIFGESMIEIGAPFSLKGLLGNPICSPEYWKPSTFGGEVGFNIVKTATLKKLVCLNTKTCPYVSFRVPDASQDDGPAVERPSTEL
Chain of D(3) dopamine receptor (P35462 whole entry): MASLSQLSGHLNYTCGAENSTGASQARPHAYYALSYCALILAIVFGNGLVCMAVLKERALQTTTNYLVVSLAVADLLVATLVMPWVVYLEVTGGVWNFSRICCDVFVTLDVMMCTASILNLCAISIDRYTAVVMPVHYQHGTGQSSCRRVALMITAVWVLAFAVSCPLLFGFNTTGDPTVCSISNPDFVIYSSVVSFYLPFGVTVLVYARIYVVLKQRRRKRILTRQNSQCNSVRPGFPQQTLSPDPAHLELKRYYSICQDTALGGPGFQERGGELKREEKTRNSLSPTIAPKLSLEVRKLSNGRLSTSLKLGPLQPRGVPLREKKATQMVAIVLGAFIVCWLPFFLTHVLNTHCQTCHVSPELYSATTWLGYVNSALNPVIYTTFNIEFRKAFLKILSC
Chain of Sodium-dependent serotonin transporter (P31645 whole entry): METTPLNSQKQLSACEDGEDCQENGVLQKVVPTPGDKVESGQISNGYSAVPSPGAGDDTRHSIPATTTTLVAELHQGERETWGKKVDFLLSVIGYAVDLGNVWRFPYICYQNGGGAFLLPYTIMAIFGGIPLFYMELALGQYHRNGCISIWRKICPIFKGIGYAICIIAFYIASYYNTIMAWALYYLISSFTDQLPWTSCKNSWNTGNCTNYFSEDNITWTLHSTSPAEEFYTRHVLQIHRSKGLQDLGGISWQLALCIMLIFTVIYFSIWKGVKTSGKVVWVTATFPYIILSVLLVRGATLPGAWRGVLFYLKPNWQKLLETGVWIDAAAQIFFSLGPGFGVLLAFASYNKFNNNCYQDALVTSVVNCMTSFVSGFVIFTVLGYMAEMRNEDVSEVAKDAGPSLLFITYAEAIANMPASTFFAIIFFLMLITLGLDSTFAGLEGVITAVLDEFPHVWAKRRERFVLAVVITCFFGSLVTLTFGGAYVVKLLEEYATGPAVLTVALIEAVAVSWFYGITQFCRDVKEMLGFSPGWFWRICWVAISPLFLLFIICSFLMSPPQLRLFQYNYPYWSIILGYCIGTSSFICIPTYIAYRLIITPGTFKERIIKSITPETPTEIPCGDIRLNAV

Compound: N[C@@H](C(=O)N[C@@H]1C(=O)N2C(C(=O)O)=C(Cl)CS[C@H]12)c1ccccc1 [CEFACLOR ANHYDROUS]
- AC50 [1]: > 30 µM
- AC50 [2]: > 30 µM
- AC50 [3]: > 30 µM
- AC50 (B2 bradykinin receptor): > 30 µM
- AC50 (Cannabinoid receptor 1 [4]): > 30 µM

Compound: OCc1cc([C@@H](O)CNCCCCCCOCCOCc2c(Cl)cccc2Cl)ccc1O [VILANTEROL]
- AC50 [2]: > 30 µM
- AC50 [3]: 2.8 µM
- AC50 (Cannabinoid receptor 1 [4]): > 30 µM

Compound: COc1cc(Nc2c(C#N)cnc3cc(OCCCN4CCN(C)CC4)c(OC)cc23)c(Cl)cc1Cl [BOSUTINIB]
- AC50 [1]: > 30 µM
- AC50 [5]: > 30 µM
- AC50 (D(3) dopamine receptor): 3.01 µM
- AC50 (Cannabinoid receptor 1 [6]): > 10 µM
- AC50 [3]: 11 µM
- AC50 (B2 bradykinin receptor): > 30 µM
- AC50 [7]: > 30 µM
- AC50 [8]: > 30 µM
- AC50 (D(1A) dopamine receptor): 4.64 µM
- AC50 (Prothrombin): > 30 µM

Compound: CS(=O)(=O)c1ccc([C@@H](O)[C@@H](CO)NC(=O)C(Cl)Cl)cc1 [THIAMPHENICOL]
- AC50 [1]: > 30 µM
- AC50 [5]: > 30 µM
- AC50 [9]: > 30 µM
- AC50 (D(3) dopamine receptor): > 30 µM
- AC50 [2]: > 30 µM
- AC50 (B2 bradykinin receptor): > 30 µM
- AC50 (Cannabinoid receptor 1 [4]): > 30 µM
- AC50 [7]: > 30 µM
- AC50 [8]: > 30 µM
- AC50 (D(1A) dopamine receptor): > 30 µM
- AC50 (Prothrombin): > 30 µM
- AC50 [10]: > 30 µM

Compound: COC(=O)N[C@H](C(=O)N1CCC[C@H]1c1nc(-c2ccc(-c3ccc(-c4c[nH]c([C@@H]5CCCN5C(=O)[C@@H](NC(=O)OC)C(C)C)n4)cc3)cc2)c[nH]1)C(C)C
- AC50 [1]: > 30 µM
- AC50 (Cannabinoid receptor 1 [6]): > 30 µM
- AC50 [2]: > 30 µM
- AC50 [3]: > 30 µM
- AC50 (B2 bradykinin receptor): > 30 µM
- AC50 [10]: > 30 µM

Compound: CN1CCCC(n2nc(Cc3ccc(Cl)cc3)c3ccccc3c2=O)CC1 (stereo not drawn) [AZELASTINE]
- AC50 [3]: 3.5 µM
- AC50 (Cannabinoid receptor 1 [4]): > 30 µM

Compound: OCCN1CCN(CCCN2c3ccccc3C=Cc3ccccc32)CC1 [OPIPRAMOL]
- AC50 [1]: > 30 µM
- AC50 [5]: > 30 µM
- AC50 [9]: > 30 µM
- AC50 (D(3) dopamine receptor): 0.42 µM
- AC50 [2]: > 30 µM
- AC50 [3]: > 30 µM
- AC50 (B2 bradykinin receptor): > 30 µM
- AC50 (Cannabinoid receptor 1 [4]): > 30 µM
- AC50 [7]: > 30 µM
- AC50 [8]: > 30 µM
- AC50 (D(1A) dopamine receptor): 1.29 µM
- AC50 (Prothrombin): > 30 µM

Compound: CCCS(=O)(=O)Nc1ccc(F)c(C(=O)c2c[nH]c3ncc(-c4ccc(Cl)cc4)cc23)c1F [VEMURAFENIB]
- AC50 [1]: > 30 µM
- AC50 [2]: > 30 µM
- AC50 [3]: > 30 µM
- AC50 (B2 bradykinin receptor): > 30 µM
- AC50 (Cannabinoid receptor 1 [4]): > 30 µM
- AC50 [10]: > 30 µM

Compound: CC(C)Cc1ccc(CC(=O)O)cc1 [IBUFENAC]
- AC50 [2]: > 30 µM
- AC50 [3]: > 30 µM
- AC50 (Cannabinoid receptor 1 [4]): > 30 µM

Compound: Cc1ccc(O)c2ncccc12 [TILIQUINOL]
- AC50 [5]: > 30 µM
- AC50 [9]: > 30 µM
- AC50 (D(3) dopamine receptor): > 30 µM
- AC50 [7]: > 30 µM
- AC50 [8]: > 30 µM
- AC50 (D(1A) dopamine receptor): > 30 µM
- AC50 (Prothrombin): > 30 µM

Compound: CC(C)OC(=O)[C@H](C)N[P@](=O)(OC[C@H]1O[C@@H](n2ccc(=O)[nH]c2=O)[C@](C)(F)[C@@H]1O)Oc1ccccc1 [SOFOSBUVIR]
- AC50 [5]: > 30 µM
- AC50 [9]: > 30 µM
- AC50 (D(3) dopamine receptor): > 30 µM
- AC50 [7]: > 30 µM
- AC50 [8]: > 30 µM
- AC50 (D(1A) dopamine receptor): > 30 µM
- AC50 (Prothrombin): > 30 µM
